Marks after values point to notes of the source that are not given here.
Key:
[1] = system: engineered cardiac constructs cultured in mixed dishes; assay: Contractile function (ET, MCR) of dish-grown constructs, palmitoleic acid treatment and washout; type: cell-based, rat
Method: (§1) Contractile function. The contractile function of engineered cardiac constructs was evaluated by monitoring contractile activity upon electrical stimulation at ×10 magnification using a microscope (Nikon Diaphot). Each construct was placed in a 100-mm petri dish containing […] Tyrode solution (140 mM NaCl, 5.4 mM KC1, 0.33 mM NaH2PO4, 1.8 mM CaCl2, 1 mM MgCl2, 5 mM HEPES, and 5.5 MM D-glucose; pH 7.4) between two custom-made gold electrodes connected to a cardiac stimulator (Nihon Kohden). The temperature was maintained at 37° C. using a heating tape (VWR) attached to the bottom of the petri dish.
(§2) The maximum capture rate (MCR) was defined as the maximum pacing frequency (in beats/min) for a synchronous stimulus response of the constructs. To measure MCR, the stimulation frequency was increased (from 60 to 600 beats/min, in 20 beats/min increments) at a constant voltage (equal to either 150% or 200% of the ET). The construct response was measured at each frequency, and the frequency was increased until the contractions became asynchronous, irregular, or completely ceased. The maximum frequency for synchronous contractions was recorded as the MCR. The value of ET, which was different from one construct to another due to the differences in their structures, served as the baseline voltage for the measurement of MCR.
(§3) Constructs cultured in perfused cartridges were compared with constructs cultured in mixed dishes and to neonatal rat ventricles (full thickness slices obtained by bisecting the left ventricle parallel to the base apex line). The effect of palmitoleic acid (PA), a gap junction blocker (4), was investigated by incubating constructs or slices of native ventricles in PA (8.3 mM in Tyrode solution) for 20 min at 37° C. and then determining ET and MCR as described above. To test whether the effect of PA was reversible, constructs were transferred to Tyrode solution and retested after an additional 20 min at 37° C.

[2] = system: engineered cardiac constructs; assay: Contractile activity of constructs during incubation with palmitoleic acid; type: cell-based, rat
Method: as §1, §3

[3] = system: engineered cardiac constructs cultured in perfused cartridges; assay: Contractile function (ET, MCR) of perfused constructs, palmitoleic acid treatment and washout; type: cell-based, rat; conditions: mean +/- SE
Method: as §1, §2, §3

neonatal rat ventricles = assay: Contractile function (ET, MCR) of neonatal rat ventricle slices, palmitoleic acid treatment and washout; type: cell-based; conditions: mean +/- SE
Method: as §1, §2, §3

[4] = dish-grown construct, after washout of PA, mean +/- SE
[5] = perfused construct, after washout of PA

CCCCCC/C=C\CCCCCCCC(=O)O [PA, palmitoleic acid]
ET (excitation threshold), After PA ([1]; dish-grown construct (7 days at 25 rpm), after washout of PA (8.3 mM, 20 min), 60 beats/min, mean +/- SE): 4.4 +/− 0.1^ab V
MCR at 150% ET, After PA [1, 4]: 378 +/− 31^c beats/min
MCR at 200% ET, After PA [1, 4]: 380 +/− 31^c beats/min
Recovery of MCR after PA washout ([1]; dish-grown constructs): failed to recover their baseline levels
Contractile activity after the washout of PA ([2]; after transfer to Tyrode solution, 20 min at 37° C.): Contractile activity resumed
Voltage at which synchronous construct contractions could not be induced ([2]; upon incubation with PA (8.3 mM in Tyrode solution)): > 9.9 V
ET (excitation threshold), After PA ([3]; perfused construct (7 days at 500 μm/s), after washout of PA (8.3 mM, 20 min), 60 beats/min): 3.5 +/− 0.1^a V
MCR at 150% ET, After PA [3, 5]: 415 +/− 35 beats/min
MCR at 200% ET, After PA [3, 5]: 435 +/− 45 beats/min
ET (excitation threshold), After PA (neonatal rat ventricles; after washout of PA (8.3 mM, 20 min, 37° C.), stimulation 60 beats/min): 1.5 +/− 0.1 V
MCR at 150% ET, After PA (neonatal rat ventricles; after washout of PA): 465 +/− 15 beats/min
MCR at 200% ET, After PA (neonatal rat ventricles; after washout of PA): 427 +/− 58 beats/min

From US8367410B2, “Application of electrical stimulation for functional tissue engineering in vitro and in vivo” (Massachusetts Institute of Technology, priority 2003, dated 2013)
